Results published in the supplement of paper PMC11451515.

Tested on: NOMO1
Test: cell viability relative to DMSO control; higher = less cytotoxic
Conditions: 48 h
Summary of the method: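 Cells were incubated for 48 h at 37°C before CellTiter-Glo One luminescence was read. The cells were NOMO1 or SEM (500 cells/well) or P12-Ichikawa (1000 cells/well) leukemia cells, adapted for at least four passages in each medium and seeded in 1536-well plates (5 μl). Dosing used library compounds in DMSO applied by pin over 11 threefold points, 47 μM to 0.79 nM. Viability is the per-plate percentage of DMSO wells, with cell-free wells as background.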

[1] = HPLM + 10% dialyzed FBS, 0.000781 µM
[2] = HPLM + 10% dialyzed FBS, 0.00234 µM
[3] = HPLM + 10% dialyzed FBS, 0.00702 µM
[4] = HPLM + 10% dialyzed FBS, 0.0211 µM
[5] = HPLM + 10% dialyzed FBS, 0.0632 µM
[6] = HPLM + 10% dialyzed FBS, 0.19 µM
[7] = HPLM + 10% dialyzed FBS, 0.569 µM
[8] = HPLM + 10% dialyzed FBS, 1.71 µM
[9] = HPLM + 10% dialyzed FBS, 5.12 µM
[10] = HPLM + 10% dialyzed FBS, 15.4 µM
[11] = HPLM + 10% dialyzed FBS, 46.1 µM
[12] = RPMI 5 mM glucose + 10% FBS, 0.000781 µM
[13] = RPMI 5 mM glucose + 10% FBS, 0.00234 µM
[14] = RPMI 5 mM glucose + 10% FBS, 0.00702 µM
[15] = RPMI 5 mM glucose + 10% FBS, 0.0211 µM
[16] = RPMI 5 mM glucose + 10% FBS, 0.0632 µM
[17] = RPMI 5 mM glucose + 10% FBS, 0.19 µM
[18] = RPMI 5 mM glucose + 10% FBS, 0.569 µM
[19] = RPMI 5 mM glucose + 10% FBS, 1.71 µM
[20] = RPMI 5 mM glucose + 10% FBS, 5.12 µM
[21] = RPMI 5 mM glucose + 10% FBS, 15.4 µM
[22] = RPMI 5 mM glucose + 10% FBS, 46.1 µM
[23] = RPMI 5 mM glucose + 10% dialyzed FBS, 0.000781 µM
[24] = RPMI 5 mM glucose + 10% dialyzed FBS, 0.00234 µM
[25] = RPMI 5 mM glucose + 10% dialyzed FBS, 0.00702 µM
[26] = RPMI 5 mM glucose + 10% dialyzed FBS, 0.0211 µM
[27] = RPMI 5 mM glucose + 10% dialyzed FBS, 0.0632 µM
[28] = RPMI 5 mM glucose + 10% dialyzed FBS, 0.19 µM
[29] = RPMI 5 mM glucose + 10% dialyzed FBS, 0.569 µM
[30] = RPMI 5 mM glucose + 10% dialyzed FBS, 1.71 µM
[31] = RPMI 5 mM glucose + 10% dialyzed FBS, 5.12 µM
[32] = RPMI 5 mM glucose + 10% dialyzed FBS, 15.4 µM
[33] = RPMI 5 mM glucose + 10% dialyzed FBS, 46.1 µM

Row | Compound | cell viability [1] | cell viability [2] | cell viability [3] | cell viability [4] | cell viability [5] | cell viability [6] | cell viability [7] | cell viability [8] | cell viability [9] | cell viability [10] | cell viability [11] | cell viability [12] | cell viability [13] | cell viability [14] | cell viability [15] | cell viability [16] | cell viability [17] | cell viability [18] | cell viability [19] | cell viability [20] | cell viability [21] | cell viability [22] | cell viability [23] | cell viability [24] | cell viability [25] | cell viability [26] | cell viability [27] | cell viability [28] | cell viability [29] | cell viability [30] | cell viability [31] | cell viability [32] | cell viability [33]
1 | CC1(C)CC(=O)c2c(C(F)(F)F)nn(-c3ccc(C(N)=O)c(NC4CCC(O)CC4)c3)c2C1 (stereo unspecified) | 83.4% | 77.1% | 69% | 72.5% | 96.9% | 58.7% | 16% | 14.1% | 15.1% | 15.6% | 78.3% | 86.5% | 81.8% | 82.1% | 84.2% | 82.2% | 47.7% | 12.5% | 9.32% | 8.93% | 8.3% | 75.8% | 91.7% | 94.1% | 102% | 94.5% | 81.6% | 48.9% | 17.1% | 12.1% | 12.2% | 11.6% | 80.6%
2 | Oc1ccc2c3c1O[C@H]1c4[nH]c5c(c4C[C@@]4(O)[C@@H](C2)N(CC2CC2)CC[C@]314)C[C@@]1(O)[C@H]2Cc3ccc(O)c4c3[C@@]1(CCN2CC1CC1)[C@H]5O4 | 92.7% | 104% | 114% | 116% | 116% | 136% | 108% | 115% | 129% | 132% | 131% | 99.8% | 122% | 110% | 116% | 128% | 118% | 125% | 120% | 116% | 123% | 134% | 98% | 127% | 112% | 122% | 123% | 126% | 122% | 110% | 108% | 124% | 119%
3 | NC1(Cc2ccc(Cl)cc2)CCN(c2ncnc3[nH]ccc23)CC1 | 97.7% | 93.7% | 89.9% | 106% | 92.9% | 105% | 116% | 81.9% | 82% | 45.6% | 29.4% | 106% | 102% | 88.3% | 101% | 97.4% | 90.5% | 85.5% | 90.6% | 74.5% | 32.6% | 16.3% | 102% | 92.8% | 94.7% | 90.2% | 102% | 84.9% | 87.8% | 80.9% | 67.3% | 33% | 17.7%
4 | Cc1cn2c(-c3cn[nH]c3)cnc2c(Nc2ccc(C(=O)N3CCNCC3)cc2F)n1 | 109% | 102% | 114% | 107% | 96.5% | 100% | 112% | 82.7% | 91.2% | 70% | 34% | 105% | 91.6% | 101% | 88% | 88.3% | 88% | 89.2% | 85.3% | 86.2% | 78.7% | 36.1% | 89.2% | 93% | 93.8% | 98.1% | 88.7% | 98.8% | 92.5% | 93.1% | 80.5% | 62.5% | 29.9%
5 | CC(=O)O[C@H]1C(=O)[C@]2(C)[C@@H](O)C[C@H]3OC[C@@]3(OC(C)=O)C2[C@H](OC(=O)C4=CC=CC=C4)[C@]5(O)C[C@H](OC(=O)[C@H](O)[C@@H](NC(=O)C6=CC=CC=C6)C7=CC=CC=C7)\C(=C1/C5(C)C)C (stereo partly specified) | 74.6% | 34.7% | 39.5% | 41.3% | 39.6% | 31.7% | 33.1% | 36.6% | 35.5% | 29.1% | 33.1% | 124% | 27.4% | 23% | 25.4% | 25.4% | 22.5% | 23.2% | 23.9% | 23.1% | 23.2% | 19.6% | 106% | 32.5% | 25.2% | 31.5% | 24.8% | 26% | 29.7% | 31.4% | 29% | 27.1% | 20.3%
6 | CCc1cc(Nc2nccc(-c3c(-c4ccc(OC)c(C(=O)Nc5c(F)cccc5F)c4)nc4ccccn34)n2)c(OC)cc1N1CCC(N2CCN([S+](C)(=O)[O-])CC2)CC1 | 101% | 95.2% | 103% | 104% | 105% | 96.7% | 114% | 120% | 103% | 96% | 43.2% | 101% | 91.5% | 92.7% | 95.3% | 94.6% | 102% | 114% | 106% | 101% | 111% | 44.6% | 84.8% | 90.1% | 94.8% | 101% | 104% | 86% | 102% | 107% | 109% | 98.3% | 65.5%
7 | C/C=C1\NC(=O)[C@H]2CSSCC/C=C\[C@H](CC(=O)N[C@H](C(C)C)C(=O)N2)OC(=O)[C@H](C(C)C)NC1=O | 102% | 119% | 119% | 105% | 17.7% | 4.68% | 4.81% | 4.43% | 5.27% | 4.81% | 4.24% | 99.6% | 97.5% | 104% | 94.9% | 18.1% | 4.23% | 3.46% | 3.14% | 2.93% | 2.29% | 2.53% | 93.7% | 90.3% | 103% | 108% | 30.1% | 4.52% | 4.41% | 3.52% | 3.86% | 1.77% | 3.47%
